Reference: article PMC10801772 (The Journal of Pharmacology and Experimental Therapeutics, 2024)
Values joined by “and” are separate entries in the source; they are usually repeats but may differ in a detail not shown here. Equal entries are not always repeated. Where two headings read alike, the source gives them in different places.

What was measured:
[1] = in vivo, po; cited from earlier work
[2] = test system: mice at terminal stages of botulism (2.2x LD50 BoNT/A, i.v.); conditions: mouse, in vivo
[3] = cited from earlier work; for Brain penetration: in vivo
[4] = test system: healthy mice; conditions: mouse, in vivo
[5] = test system: animal models of botulism; conditions: in vivo; cited from earlier work
[6] = test system: patients with LEMS; conditions: human, in vivo; cited from earlier work
[7] = mouse, in vivo, sc, 2 mg/kg; cited from earlier work
[8] = test system: mice at terminal stages of botulism (2.2x LD50 BoNT/A, i.v.); conditions: mouse, in vivo; remark: listed apart in the source

Nc1ccncc1N [amifampridine]
Maximum blood levels [1]: 38.6 ± 9.2 ng/mL

Nc1ccnc(N)c1 [2,4-DAP, 2,4-diaminopyridine]
Relative effects on TV versus RR [2]: increased TV and RR by roughly equal proportions
Brain penetration [3]: poor brain penetration

[2H]c1nc([2H])c([2H])c(N)c1[2H] [4-AP-d4, 4-aminopyridine-d4]
Relative effects on TV versus RR [2]: increased TV and RR by roughly equal proportions

Nc1ccncc1 [4-AP, 4-aminopyridine]
Relative effects on TV versus RR [2]: increased TV and RR by roughly equal proportions
Blood brain barrier permeability relative to 3,4-DAP ([3]; not told): approximately sixfold greater
Effect on MV [4]: no changes in MV
Effect on RR [4]: significantly increased RR
Effect on TV [4]: concomitant reductions in TV

Nc1ccncc1F [3F-4AP, 4-amino-3-fluoropyridine]
Relative effects on TV versus RR [2]: more potent effects on RR
Symptomatic benefits compared with the other effective aminopyridines [2]: modest and short in duration
CNS permeability ([3]; not told): CNS-permeable

Nc1ccnc(F)c1 [2F-4AP, 4-amino-2-fluoropyridine]
Effects on ventilatory parameters (MV, TV, RR) [2]: indistinguishable from vehicle

Nc1c(F)cncc1F [3,5DF-4AP, 4-amino-3,5-difluoropyridine]
Effects on ventilatory parameters (MV, TV, RR) [2]: indistinguishable from vehicle

Nc1cncc(N)c1N [3,4,5-TAP, 3,4,5-triaminopyridine]
Relative effects on TV versus RR [2]: increased TV and RR by roughly equal proportions
Brain penetration [3]: poor brain penetration

[2H]c1nc([2H])c(N)c(N)c1[2H] [3,4-DAP-d3, 3,4-diaminopyridine-d3]
Relative effects on TV versus RR [2]: more potent effects on TV
CNS permeability / brain penetration ([3]; not told): low central nervous system (CNS) permeability

Nc1ccncc1N [3,4-DAP, 3,4-diaminopyridine]
Effect on ventilatory parameters (TV, RR, MV, mid-expiratory flow, peak inspiratory flow, peak expiratory flow, expired volume, enhanced pause) [2]: significantly improved
Lowest dose to produce an unambiguous peak response in MV [2]: 0.25 mg/kg
Relative effects on TV versus RR [2]: more potent effects on TV
Time after treatment at which MV significantly improved [2]: 10 min
Time after treatment to maximum effect on MV [2]: 25 to 30 min
Time after which ventilatory parameters began to decline [2]: approximately 30 minutes
Time up to which all ventilatory parameters remained significantly improved compared with vehicle [2]: 90 min
Doses that increased both ventilatory parameters and respiration ([2]; sc): ≥ 0.25 mg/kg
Exposure required for reversal of botulism symptoms [5]: 125 ng/mL
Exposure needed for typical patients with LEMS [6]: 32 ng/mL
Effect on MV [4]: no changes in MV
Effect on RR [4]: significantly increased RR
Effect on TV [4]: concomitant reductions in TV
Maximum blood levels [7]: 840 ng/mL
Blood gas levels [8]: did not improve
Lactate [8]: did not show any significant improvement
Time to improvement in blood gas levels [8]: 45 min and < 30 min
Time to reversal of respiratory acidosis (pCO2, HCO3-, pH, lactate) [8]: ≤ 30 minutes
pCO2, pH and HCO3- [8]: improved
Effect on pO2 levels ([8]; sc): Neither intoxication nor 3,4-DAP treatment had an effect on pO2 levels
